Data published in US11066414B2, “Cot modulators and methods of use thereof” (Gilead Sciences, Inc., priority 2015, dated 2021).
Read-outs that look alike come from different tables or passages of the source.

Tests used:
TNFα = assay: Cot Monocyte TNFα Cell Based Assay
Human Cot = Human Cot (Homo sapiens (Human), UniProt P41279); assay: High Throughput Cot Biochemical Assay
[1] = Homo sapiens, Monocyte, read-out: EC50 TNF, LPS-stimulated human monocytes, TNFα
[2] = IC50 HTRF, Cot HTRF (TR-FRET) biochemical assay
[3] = read-out: EC50 TNF, LPS-stimulated human monocytes, TNFα
[4] = read-out: IC50 HTRF, Cot HTRF (TR-FRET) biochemical assay
[5] = Homo sapiens, Monocyte, read-out: EC50 TNF, LPS-stimulated human monocytes, TNFα TR-FRET
[6] = IC50 HTRF, Cot HTRF (TR-FRET KinEASE) biochemical assay, 400 μM ATP

Sequence of Human Cot (P41279 30-397): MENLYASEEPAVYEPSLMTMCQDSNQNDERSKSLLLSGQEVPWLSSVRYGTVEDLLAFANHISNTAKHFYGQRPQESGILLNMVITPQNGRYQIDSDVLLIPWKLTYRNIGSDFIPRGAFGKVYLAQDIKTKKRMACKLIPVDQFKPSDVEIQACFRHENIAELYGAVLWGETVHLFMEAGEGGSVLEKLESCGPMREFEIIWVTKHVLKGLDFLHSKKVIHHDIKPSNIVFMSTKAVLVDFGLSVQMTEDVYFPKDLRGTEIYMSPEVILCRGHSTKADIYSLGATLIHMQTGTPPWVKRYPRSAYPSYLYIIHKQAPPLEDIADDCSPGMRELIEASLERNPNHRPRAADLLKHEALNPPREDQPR

Structure (SMILES) | EC50 (TNFα; [1]) [nM] | IC50 (Human Cot; [2]) [nM] | further results
Cn1nccc1[C@H](Nc1cc(Cl)c2ncc(C#N)c(NCC(C)(C)C)c2c1)c1cn(C2(C(F)F)CC2)nn1 [Example 665, (S)-8-chloro-6-(((1-(1-(difluoromethyl)cyclopropyl)-1H-1,2,3-triazol-4-yl)(1-methyl-1H-pyrazol-5-yl)methyl)amino)-4-(neopentylamino)quinoline-3-carbonitrile] | 198 | 6 | –
CC[C@@H](Nc1c(C#N)cnc2c(Cl)cc(N[C@@H](c3cccnc3)c3cn(CC[N+](C)(CC)CC)nn3)cc12)c1ccccc1 [Example 212, 2-(4-((S)-((8-chloro-3-cyano-4-(((R)-1-phenylpropyl)amino)quinolin-6-yl)amino)(pyridin-3-yl)methyl)-1H-1,2,3-triazol-1-yl)-N,N-diethyl-N-methylethan-1-aminium] | 9150 | 44 | –
N#Cc1cnc2c(Cl)cc(N[C@@H](c3cscn3)c3cn(CCN)nn3)cc2c1Nc1ccc(F)c(Cl)c1 [Example 359, (S)-6-(((1-(2-arninoethyl)-1H-1,2,3-triazol-4-yl)(thiazol-4-yl)methyl)-amino)-8-chloro-4-((3-chloro-4-fluorophenyl)amino)quinoline-3-carbonitrile] | – | – | EC50 (TNFα; [3]): 729 nM; IC50 (Human Cot; [4]): 3 nM
Cc1nc(F)ccc1[C@H](Nc1cc(C#N)c2ncc(C#N)c(NCC(C)(C)C)c2c1)c1cn(C2(C#N)CCC2)nn1 [Example 491, (S)-6-(((1-(1-cyanocyclobutyl)-1H-1,2,3-triazol-4-yl)(6-fluoro-2-methylpyridin-3-yl)methyl)amino)-4-(neopentylamino)-quinoline-3,8-dicarbonitrile] | 40 | 3 | –
COCCn1cc([C@@H](Nc2cc(Cl)c3ncc(C#N)c(Nc4ccc(F)c(Cl)c4)c3c2)c2cscn2)nn1 [Example 358, (S)-8-chloro-4-((3-chloro-4-fluorophenyl)amino)-6-(((1-(2-methoxyethyl)-1H-1,2,3-triazol-4-yl)(thiazol-4-yl)methyl)amino)-quinoline-3-carbonitrile] | 130 | 3 | –
Cc1nc(F)ccc1[C@H](Nc1cc(C#N)c2ncc(C#N)c(NCC(C)(C)C)c2c1)c1nnn([C@@H](C)CF)c1F [Example 854, 6-(((S)-(5-fluoro-1-((S)-1-fluoropropan-2-yl)-1H-1,2,3-triazol-4-yl)(6-fluoro-2-methylpyridin-3-yl)methyl)amino)-4-(neopentylamino)quinoline-3,8-dicarbonitrile] | – | – | EC50 (TNFα; [5]): 17 nM; IC50 (Human Cot; [6]): 4 nM
N#Cc1cnc2c(Cl)cc(N[C@@H](c3cccnc3)c3cn(C4COC4)nn3)cc2c1Nc1cnc(F)c(F)c1 [Example 199, (S)-8-chloro-4-((5,6-difluoropyridin-3-yl)amino)-6-(((1-(oxetan-3-yl)-1H-1,2,3-triazol-4-yl)(pyridin-3-yl)methyl)amino)quinoline-3-carbonitrile] | 2520 | 9 | –
CC(C)(C)N1CCC(n2cc([C@@H](Nc3cc(Cl)c4ncc(C#N)c(Nc5cccc(Cl)c5F)c4c3)c3csc4c3CCN(C3COC3)C4)nn2)CC1 [Example 241, (S)-6-(((1-(1-(tert-butyl)piperidin-4-yl)-1H-1,2,3-triazol-4-yl)(6-(oxetan-3-yl)-4,5,6,7-tetrahydrothieno[2,3-c]pyridin-3-yl)methyl)amino)-8-chloro-4-((3-chloro-2-fluorophenyl)amino)-quinoline-3-carbonitrile] | 32 | 2 | –
[2H]C(Nc1cc(Cl)c2ncc(C#N)c(NCC(C)(C)C)c2c1)(c1cn(C2CC2)nn1)c1cc(F)cnc1C (centres unmarked) [Example 114, 8-chloro-6-(((1-cyclopropyl-1H-1,2,3-triazol-4-yl)(5-fluoro-2-methylpyridin-3-yl)methyl-d)amino)-4-(neopentylamino)quinoline-3-carbonitrile] | 233 | 10 | –
Cc1nc(F)ccc1[C@H](Nc1cc(Cl)c2ncc(C#N)c(NCC(C)(C)C)c2c1)c1cn(CCCO)nn1 [Example 986, (S)-8-chloro-6-(((6-fluoro-2-methylpyridin-3-yl)(1-(3-hydroxypropyl)-1H-1,2,3-triazol-4-yl)methyl)amino)-4-(neopentylamino)quinoline-3-carbonitrile] | – | – | EC50 (TNFα; [5]): 141 nM; IC50 (Human Cot; [6]): 5 nM
CC(C)(C)CNc1c(C#N)cnc2c(Cl)cc(N[C@H](c3cn(C4(C(F)F)CC4)nn3)c3cccc4c(=O)n(CC(F)F)ccc34)cc12 [Example 743, (S)-8-chloro-6-(((2-(2,2-difluoroethyl)-1-oxo-1,2-dihydroisoquinolin-5-yl)(1-(1-(difluoromethyl)cyclopropyl)-1H-1,2,3-triazol-4-yl)methyl)amino)-4-(neopentylamino)quinoline-3-carbonitrile] | 116 | 5 | –
Cc1nc(F)ccc1[C@H](Nc1cc(C#N)c2ncc(C#N)c(NCC3C(C)(C)C3(C)C)c2c1)c1cn(C2(C(F)F)CC2)nn1 [Example 845, (S)-6-(((1-(1-(difluoromethyl)-cyclopropyl)-1H-1,2,3-triazol-4-yl)(6-fluoro-2-methylpyridin-3-yl)methyl)amino)-4-(((2,2,3,3-tetramethylcyclopropyl)methyl)-amino)quinoline-3,8-dicarbonitrile] | – | – | EC50 (TNFα; [5]): 1000 nM; IC50 (Human Cot; [6]): 20 nM
CC(C)(C)CNc1c(C#N)cnc2c(C#N)cc(N[C@H](c3cn(C4(C(N)=O)CCC4)nn3)c3cccc4cnccc34)cc12 [Example 587, (S)-1-(4-(((3,8-dicyano-4-(neopentylamino)-quinolin-6-yl)amino)(isoquinolin-5-yl)methyl)-1H-1,2,3-triazol-1-yl)cyclobutane-1-carboxamide] | 489 | 1 | –
N#Cc1cnc2c(Cl)cc(NC(c3ccccn3)c3ccccn3)cc2c1Nc1ccc(F)c(Cl)c1 [Example 377, 8-chloro-4-((3-chloro-4-fluoro-phenyl)amino)-6-((di(pyridin-2-yl)methyl)amino)quinoline-3-carbonitrile] | > 1000 | – | IC50 (Human Cot; [4]): 398 nM
Cc1ncsc1[C@H](Nc1cc(Cl)c2ncc(C#N)c(Nc3ccc(F)c(Cl)c3)c2c1)c1cn(C(C)C)nn1 [Example 306, (R)-8-chloro-4-((3-chloro-4-fluorophenyl)amino)-6-(((1-isopropyl-1H-1,2,3-triazol-4-yl)(4-methylthiazol-5-yl)methyl)amino)quinoline-3-carbonitrile] | 202 | 6 | –
[2H]C(Nc1cc(Cl)c2ncc(C#N)c(N[C@H](CC)c3ccccc3)c2c1)(c1cn(C2CC2)nn1)c1scnc1C (stereo partly drawn) [Example 101, 8-chloro-6-(((1-cyclopropyl-1H-1,2,3-triazol-4-yl)(4-methylthiazol-5-yl)methyl-d)amino)-4-(((R)-1-phenylpropyl)amino)quinoline-3-carbonitrile] | 348 | 5 | –
CC(C)(C)CNc1c(C#N)cnc2c(Cl)cc(N[C@H](c3cn(C4(C(F)(F)F)CC4)nn3)c3cccc4[nH]c(C(F)(F)F)nc34)cc12 [Example 972, (S)-8-chloro-4-(neopentylamino)-6-(((2-(trifluoromethyl)-1H-benzo[d]imidazol-4-yl)(1-(1-(trifluoromethyl)cyclopropyl)-1H-1,2,3-triazol-4-yl)methyl)amino)quinoline-3-carbonitrile] | – | – | EC50 (TNFα; [5]): 1000 nM; IC50 (Human Cot; [6]): 1820 nM
Cc1nc(F)ccc1[C@H](Nc1cc(Cl)c2ncc(C#N)c(NCC(C)(C)CO)c2c1)c1cn(C2(C(F)(F)F)CC2)nn1 [Example 534, (S)-8-chloro-6-(((6-fluoro-2-methylpyridin-3-yl)(1-(1-(trifluoromethyl)cyclopropyl)-1H-1,2,3-triazol-4-yl)methyl)amino)-4-((3-hydroxy-2,2-dimethylpropyl)amino)-quinoline-3-carbonitrile] | 394 | 20 | –
C[C@@H](CF)n1cc([C@@H](Nc2cc(Cl)c3ncc(C#N)c(NCC(C)(C)C(F)(F)F)c3c2)c2cccc3c(=O)n(C)ccc23)nn1 [Example 784, 8-chloro-6-(((S)-(1-((S)-1-fluoropropan-2-yl)-1H-1,2,3-triazol-4-yl)(2-methyl-1-oxo-1,2-dihydroiso-quinolin-5-yl)methyl)amino)-4-((3,3,3-trifluoro-2,2-dimethylpropyl)amino)quinoline-3-carbonitrile] | – | – | EC50 (TNFα; [3]): 51 nM; IC50 (Human Cot; [4]): 3 nM
CN1Cc2cccc([C@H](Nc3cc(Cl)c4ncc(C#N)c(NCC(C)(C)C)c4c3)c3cn(C4(C(F)F)CC4)nn3)c2C1=O [Example 498, (S)-8-chloro-6-(((1-(1-(difluoromethyl)-cyclopropyl)-1H-1,2,3-triazol-4-yl)(2-methyl-3-oxoisoindolin-4-yl)methyl)-amino)-4-(neopentylamino)quinoline-3-carbonitrile] | 689 | 19 | –
Cc1nc(F)ccc1[C@H](Nc1cc(Cl)c2ncc(C#N)c(NCC(C)(C)C)c2c1)c1cn(C2(C(=O)O)CC(F)(F)C2)nn1 [Example 624, (S)-1-(4-(((8-chloro-3-cyano-4-(neopentylamino)quinolin-6-yl)amino)(6-fluoro-2-methylpyridin-3-yl)methyl)-1H-1,2,3-triazol-1-yl)-3,3-difluorocyclobutane-1-carboxylic acid] | 1000 | 11 | –
Cc1nc(F)ccc1[C@H](Nc1cc(F)c2ncc(C#N)c(NCC(C)(C)C)c2c1)c1cn(C2(C(N)=O)CC2)nn1 [Example 486, (S)-1-(4-(((3-cyano-8-fluoro-4-(neopentyl-amino)quinolin-6-yl)amino)(6-fluoro-2-methylpyridin-3-yl)methyl)-1H-1,2,3-triazol-1-yl)cyclopropane-1-carboxamide] | 991 | 3 | –
